In assay [1] the target is Human alpha-thrombin (Homo sapiens (Human), UniProt P00734). In words: Thrombin counterscreen for selectivity, fluorogenic substrate cleavage. It counts as biochemical. As to conditions: 10 min pre-incubation, Boc-Val-Pro-Arg-AMC 20 μM. As to the method:
Counterscreens for Selectivity:
Thrombin. In a 96-well white opaque plate, 80 μl of assay buffer was added to each well. Test compounds were added, and serially diluted as above, to generate a concentration range of approximately 1-100 μM. Human alpha-thrombin (Enzyme Research Labs) was diluted in assay buffer to a final concentration of 12.5 nM. 80 μl of this enzyme solution was added to the assay wells. The enzyme/compound mixtures were incubated for 10 minutes at room temperature. Fluorogenic substrate (Boc-Val-Pro-Arg-7-amido-4-methylcoumarin; Sigma) was added to assay wells at a final concentration of 20 μM. The assay plate was spun for 1 minute at 1500 g and then read at 37° C. in a SpectraMax M2 plate reader (λex=380 nm and λem=460 nm). Activity was quantified as the rate of change in fluorescence, which corresponds to the rate of substrate cleavage. IC50 values were determined as the concentration of inhibitor that produced 50% of the rate of change of control wells without any inhibitor. For compounds with activity <1 μM, the assay was repeated with a lower concentration range, typically from 10-1000 nM.

Assay [2] addresses Human FXIIa (Homo sapiens (Human), UniProt P00748). Briefly: Factor XIIa (FXIIa) inhibitory activity, chromogenic substrate (Pefachrome XIIa) cleavage. As to conditions: 10 min pre-incubation, Pefachrome XIIa 400 μM. It counts as biochemical.

In US11312723B2, “Pyranopyrazole and pyrazolopyridine immunomodulators for treatment of autoimmune diseases” (The Rockefeller University, priority 2017, dated 2022) one finds IC50 data, which are given here for 28 molecules.

Broadly, the IC50 is the concentration at which inhibition is half-maximal. Read a high IC50 as weaker potency in that assay.

Human FXIIa, sequence (P00748 373-615): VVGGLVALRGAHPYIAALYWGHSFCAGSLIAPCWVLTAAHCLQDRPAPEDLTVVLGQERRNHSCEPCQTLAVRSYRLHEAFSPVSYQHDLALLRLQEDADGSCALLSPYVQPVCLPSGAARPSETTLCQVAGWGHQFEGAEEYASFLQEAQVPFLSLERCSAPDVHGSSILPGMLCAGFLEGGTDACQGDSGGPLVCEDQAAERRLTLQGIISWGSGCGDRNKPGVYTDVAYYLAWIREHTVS
Human FXIIa, sequence (P00748 20-372 partner): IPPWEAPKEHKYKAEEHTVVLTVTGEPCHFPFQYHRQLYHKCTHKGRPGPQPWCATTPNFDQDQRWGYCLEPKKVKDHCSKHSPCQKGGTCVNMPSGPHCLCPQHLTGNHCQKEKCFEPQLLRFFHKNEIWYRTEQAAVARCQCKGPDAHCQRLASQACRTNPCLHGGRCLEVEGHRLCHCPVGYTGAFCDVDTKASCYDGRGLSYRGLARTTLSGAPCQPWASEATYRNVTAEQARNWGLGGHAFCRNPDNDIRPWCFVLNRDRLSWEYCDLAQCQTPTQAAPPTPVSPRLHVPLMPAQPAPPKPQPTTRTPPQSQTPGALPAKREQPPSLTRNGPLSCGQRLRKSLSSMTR

Turning to `CS(=O)(=O)N1CCc2c(nn(C(=O)C3CCNc4ccc(F)cc43)c2N)C1` (single isomer, unassigned) [Example 16, (3-amino-6-(methylsulfonyl)-4,5,6,7-tetrahydropyrazolo[3,4-c]pyridin-2-yl)(6-fluoro-1,2,3,4-tetrahydroquinolin-4-yl)methanone], the IC50 in assay [1] amounted to 20 µM; in assay [2], 0.06 µM. The like results for `CS(=O)(=O)N1CCc2c(nn(C(=O)C3CCNc4ccc(F)cc43)c2N)C1` (single isomer, unassigned) [Example 18, (S*)-(3-amino-6-(methylsulfonyl)-4,5,6,7-tetrahydropyrazolo[3,4-c]pyridin-2-yl)(6-fluoro-1,2,3,4-tetrahydroquinolin-4-yl)methanone] were, in that order, 12.5 µM and 0.03 µM.

With `Cc1cc(F)cc2c1NCCC2C(=O)n1nc2c(c1N)CCN(S(C)(=O)=O)C2` (single isomer, unassigned) [Example 53, (S*)-(3-amino-6-(methylsulfonyl)-4,5,6,7-tetrahydropyrazolo[3,4-c]pyridin-2-yl)(6-fluoro-8-methyl-1,2,3,4-tetrahydroquinolin-4-yl)methanone], the values for the IC50 in assay [1] and in assay [2] were 9 µM and 0.01 µM, respectively. `CS(=O)(=O)N1CCc2c(nn(C(=O)C3CCNc4c(Cl)cccc43)c2N)C1` (single isomer, unassigned) [Example 60, (S*)-(3-amino-6-(methylsulfonyl)-4,5,6,7-tetrahydropyrazolo[3,4-c]pyridin-2-yl)(8-chloro-1,2,3,4-tetrahydroquinolin-4-yl)methanone]: the IC50 was more than 60 µM in assay [1] and 0.03 µM in assay [2]. On to `COc1cccc2c1NCCC2C(=O)n1nc2c(c1N)CCN(S(C)(=O)=O)C2` (single isomer, unassigned) [Example 63, (S*)-(3-amino-6-(methylsulfonyl)-4,5,6,7-tetrahydropyrazolo[3,4-c]pyridin-2-yl)(8-methoxy-1,2,3,4-tetrahydroquinolin-4-yl)methanone], for which the IC50 in assay [1] came to 35 µM; in assay [2] it was 0.14 µM.

With `Cc1cc2c(C(=O)n3nc(N)c4c3CN(S(C)(=O)=O)CC4)cccc2[nH]1` [Example 102, (3-amino-6-(methylsulfonyl)-4,5,6,7-tetrahydro-pyrazolo[3,4-c]pyridin-1-yl)(2-methyl-1H-indol-4-yl)methanone], in assay [2], the IC50 turned out to be 1.2 µM. On the same count and under the same terms, under `COC(=O)N1CCc2c(N)nn(C(=O)C3CCNc4ccccc43)c2C1` (stereo not drawn) [Example 115, methyl 3-amino-1-(1,2,3,4-tetrahydro-quinoline-4-carbonyl)-4,5-dihydro-1H-pyrazolo[3,4-c]pyridine-6(7H)-carboxylate] stands 30 µM; under `CS(=O)(=O)N1CCc2c(N)nn(C(=O)C3CCCc4[nH]c(Cl)cc43)c2C1` (stereo not drawn) [Example 133, (3-amino-6-(methylsulfonyl)-4,5,6,7-tetrahydro-pyrazolo[3,4-c]pyridin-1-yl)(2-chloro-4,5,6,7-tetrahydro-1H-indol-4-yl)methanone], 45 µM; under `CC(C)S(=O)(=O)N1CCc2c(N)nn(C(=O)C3CCNc4ccc(F)cc43)c2C1` (stereo not drawn) [Example 137, (3-amino-6-(isopropyl-sulfonyl)-4,5,6,7-tetrahydro-pyrazolo[3,4-c]pyridin-1-yl)(6-fluoro-1,2,3,4-tetrahydro-quinolin-4-yl)methanone], 7 µM.

`CC(C)(C)S(=O)(=O)N1CCc2c(N)nn(C(=O)C3CCNc4ccc(F)cc43)c2C1` (stereo not drawn) [Example 139, (3-amino-6-(tert-butylsulfonyl)-4,5,6,7-tetrahydro-pyrazolo[3,4-c]pyridin-1-yl)(6-fluoro-1,2,3,4-tetrahydro-quinolin-4-yl)methanone]: 55 µM corresponded to half-maximal inhibition in assay [2] (IC50). On the same count and under the same terms, in the case of `Nc1nn(C(=O)C2CCNc3ccc(F)cc32)c2c1CCN(S(=O)(=O)CF)C2` (stereo not drawn) [Example 141, (3-amino-6-(fluoromethyl-sulfonyl)-4,5,6,7-tetrahydro-pyrazolo(3,4-c]pyridin-1-yl)(6-fluoro-1,2,3,4-tetrahydro-quinolin-4-yl)methanone] it was 31 µM; in that of `Nc1nn(C(=O)C2CCNc3ccc(F)cc32)c2c1CCN(S(=O)(=O)CC(F)F)C2` (stereo not drawn) [Example 143, (3-amino-6-(2,2-difluoroethyl-sulfonyl)-4,5,6,7-tetrahydro-pyrazolo[3,4-c]pyridin-1-yl)(6-fluoro-1,2,3,4-tetrahydro-quinolin-4-yl)methanone], 17 µM. On the same count and under the same terms, in the case of `Nc1nn(C(=O)C2CCNc3ccc(F)cc32)c2c1CCNC2` (stereo not drawn) [Example 148, (3-amino-4,5,6,7-tetrahydro-pyrazolo[3,4-c]pyridin-1-yl)(6-fluoro-1,2,3,4-tetrahydro-quinolin-4-yl)methanone] it was 20 µM; in that of `CCCN1CCc2c(N)nn(C(=O)C3CCNc4ccc(F)cc43)c2C1` (stereo not drawn) [Example 150, (3-amino-6-propyl-4,5,6,7-tetrahydro-pyrazolo[3,4-c]pyridin-1-yl)(6-fluoro-1,2,3,4-tetrahydro-quinolin-4-yl)methanone], more than 70 µM; in that of `CC(C)CN1CCc2c(N)nn(C(=O)C3CCNc4ccc(F)cc43)c2C1` (stereo not drawn) [Example 154, (3-amino-6-isobutyl-4,5,6,7-tetrahydro-pyrazolo[3,4-c]pyridin-1-yl)(6-fluoro-1,2,3,4-tetrahydro-quinolin-4-yl)methanone], 18 µM.

The molecule `Nc1c2c(nn1C(=O)C1CCNc3ccc(F)cc31)CN(S(=O)(=O)c1ccncc1)CC2` (stereo not drawn) [Example 155, (3-amino-6-(pyridin-4-ylsulfonyl)-4,5,6,7-tetrahydro-pyrazolo[3,4-c]pyridin-2-yl)(6-fluoro-1,2,3,4-tetrahydro-quinolin-4-yl)methanone] had an IC50 in assay [2] of 1.2 µM. For the molecule `Nc1nn(C(=O)C2CCNc3ccc(F)cc32)c2c1CCN(S(=O)(=O)c1ccncc1)C2` (stereo not drawn) [Example 156, (3-amino-6-(pyridin-4-ylsulfonyl)-4,5,6,7-tetrahydro-pyrazolo[3,4-c]pyridin-1-yl)(6-fluoro-1,2,3,4-tetrahydro-quinolin-4-yl)methanone], the IC50 in assay [2] came out at 14 µM.

In turn, `Nc1nn(C(=O)C2CCNc3ccc(F)cc32)c2c1CCN(S(=O)(=O)c1cccnc1)C2` (stereo not drawn) [Example 158, (3-amino-6-(pyridin-3-ylsulfonyl)-4,5,6,7-tetrahydro-pyrazolo[3,4-c]pyridin-1-yl)(6-fluoro-1,2,3,4-tetrahydro-quinolin-4-yl)methanone] had an IC50 in assay [2] of 37 µM. The same measure, in the same setting: under `Nc1nn(C(=O)C2CCNc3ccc(F)cc32)c2c1CCN(S(=O)(=O)C(F)F)C2` (stereo not drawn) [Example 160, (3-amino-6-(difluoromethyl-sulfonyl)-4,5,6,7-tetrahydro-pyrazolo[3,4-c]pyridin-1-yl)(6-fluoro-1,2,3,4-tetrahydro-quinolin-4-yl)methanone] stands 16 µM. Still for that read-out and setting: under `CCN1CCc2c(N)nn(C(=O)C3CCNc4ccc(Cl)cc43)c2C1` (stereo not drawn) [Example 162, (3-amino-6-ethyl-4,5,6,7-tetrahydro-pyrazolo[3,4-c]pyridin-1-yl)(6-chloro-1,2,3,4-tetrahydro-quinolin-4-yl)methanone] stands 21 µM; under `CCN1CCc2c(N)nn(C(=O)C3CCNc4ccc(F)cc43)c2C1` (stereo not drawn) [Example 164, (3-amino-6-ethyl-4,5,6,7-tetrahydro-pyrazolo[3,4-c]pyridin-1-yl)(6-fluoro-1,2,3,4-tetrahydro-quinolin-4-yl)methanone], 12 µM. `CCN1CCc2c(N)nn(C(=O)C3CCNc4c(C)cc(F)cc43)c2C1` (stereo not drawn) [Example 172, (3-amino-6-ethyl-4,5,6,7-tetrahydro-pyrazolo[3,4-c]pyridin-1-yl)(6-fluoro-8-methyl-1,2,3,4-tetrahydro-quinolin-4-yl)methanone] gave an IC50 in assay [2] of 4.5 µM. In assay [2], `CCN1CCc2c(N)nn(C(=O)C3CCNc4c(C)cccc43)c2C1` (stereo not drawn) [Example 175, (3-amino-6-ethyl-4,5,6,7-tetrahydro-pyrazolo[3,4-c]pyridin-1-yl)(8-methyl-1,2,3,4-tetrahydro-quinolin-4-yl)methanone] returned an IC50 of 50 µM. The same measure, in the same setting: in the case of `Cc1cccc2c1NCCC2C(=O)n1nc(N)c2c1CNCC2` (stereo not drawn) [Example 178, (3-amino-4,5,6,7-tetrahydro-pyrazolo[3,4-c]pyridin-1-yl)(8-methyl-1,2,3,4-tetrahydro-quinolin-4-yl)methanone] it was 60 µM.

Molecule `Cc1cccc2c1NCCC2C(=O)n1nc(N)c2c1CN(S(=O)(=O)C1CCC1)CC2` (stereo not drawn) [Example 184] had an IC50 in assay [2] of 11 µM. Still for that read-out and setting: under `Cc1cccc2c1NCCC2C(=O)n1nc(N)c2c1CN(S(=O)(=O)C1COC1)CC2` (stereo not drawn) [Example 187, (3-amino-6-(oxetan-3-ylsulfonyl)-4,5,6,7-tetrahydro-pyrazolo[3,4-c]pyridin-1-yl)(8-methyl-1,2,3,4-tetrahydro-quinolin-4-yl)methanone] stands 35 µM; under `Cc1cccc2c1NCCC2C(=O)n1nc(N)c2c1CCOC2` (stereo not drawn) [Example 189, (3-amino-6,7-dihydropyrano[4,3-c]pyrazol-1(4H)-yl)(8-methyl-1,2,3,4-tetrahydro-quinolin-4-yl)methanone], 40 µM. Still for that read-out and setting: in the case of `Cc1cccc2c1NCCC2C(=O)n1nc(N)c2c1COCC2` (stereo not drawn) [Example 200, (3-amino-4,5-dihydropyrano[3,4-c]pyrazol-1(7H)-yl)(8-methyl-1,2,3,4-tetrahydro-quinolin-4-yl)methanone] it was more than 100 µM.
